MIC of antibiotic data for two compounds are collected here from PMC7557582, “Broad-Spectrum Antimicrobial Activity and Improved Stability of a D-Amino Acid Enantiomer of DMPC-10A, the Designed Derivative of Dermaseptin Truncates” (Antibiotics, 2020).

The subject of one assay is S. aureus (NCTC 10788). Type of assay: cell-based, Staphylococcus aureus. To be noted: S. aureus (NCTC 10788); broth-dilution, MHB pH 7.4, 37 °C; positive control.
Another assay relates to MRSA (NCTC 12493). Type of assay: cell-based, methicillin-resistant S. aureus. The settings on record: MRSA (NCTC 12493); broth-dilution, MHB pH 7.4, 37 °C; positive control.
Another assay relates to E. faecalis (NCTC 12697). In kind it is cell-based, Enterococcus faecalis. The settings on record: E. faecalis (NCTC 12697); broth-dilution, MHB pH 7.4, 37 °C; positive control.
In the next assay the test system is E. coli (NCTC 10418). In kind it is cell-based, Escherichia coli. The settings on record: E. coli (NCTC 10418); broth-dilution, MHB pH 7.4, 37 °C; positive control.
The test system of assay [1] is K. pneumoniae (ATCC 43816). Type of assay: cell-based, Klebsiella pneumoniae. The settings on record: K. pneumoniae (ATCC 43816); broth-dilution, MHB pH 7.4, 37 °C; positive control.
Experimental: (§1) Gram-positive bacteria Staphylococcus aureus (NCTC 10788) and Enterococcus faecalis (NCTC 12697) and Gram-negative bacteria Escherichia coli (NCTC 10418), Pseudomonas aeruginosa (ATCC 27853), and Klebsiella pneumoniae (ATCC 43816) were tested. […] All the bacterial strains were inoculated in Mueller Hinton broth (MHB), pH 7.4 (Oxiod, Basingstoke, UK) at 37 °C. Then, the log-phase bacteria were mixed with the peptide at the concentrations from 512 to 1 µM in two-fold dilution, in a 96 well-plate. The wells contained sterilized MHB and bacteria cultures were employed as a blank and growth control, respectively.
The test system of assay [2] is K. pneumoniae (ATCC BAA 1705). In kind it is cell-based, Klebsiella pneumoniae. The settings on record: K. pneumoniae (ATCC BAA 1705); broth-dilution, MHB pH 7.4, 37 °C; positive control.
Experimental: as §1
Assay [3] deals with K. pneumoniae (ATCC BAA 2342). Type of assay: cell-based, Klebsiella pneumoniae. To be noted: K. pneumoniae (ATCC BAA 2342); broth-dilution, MHB pH 7.4, 37 °C; positive control.
Experimental: as §1
Assay [4] has as its system P. aeruginosa (ATCC 27853). In kind it is cell-based, Pseudomonas aeruginosa. To be noted: P. aeruginosa (ATCC 27853); broth-dilution, MHB pH 7.4, 37 °C; positive control.
Experimental: as §1

Experimental for E. coli (NCTC 10418): as §1
Experimental for E. faecalis (NCTC 12697): as §1
Experimental for MRSA (NCTC 12493): as §1
Experimental for S. aureus (NCTC 10788): as §1

As for `CCn1cc(C(=O)O)c(=O)c2cc(F)c(N3CCNCC3)cc21` [Norfloxacin, reference compound], the MIC of antibiotic in the assay on S. aureus (NCTC 10788) is recorded as 2/6.26 µg/mL; in the assay on MRSA (NCTC 12493) it was 2/6.26 µg/mL; in the assay with E. faecalis (NCTC 12697) it was 4/12.53 µg/mL; with E. coli (NCTC 10418), 1/3.13 µg/mL; in assay [1], 2/6.26 µg/mL; in assay [2] it was >32/>100.21 µg/mL. For the same compound, the MIC of antibiotic was >32/>100.21 µg/mL in assay [3] and 2/6.26 µg/mL in assay [4].
`CNC(C)C1CCC(N)C(OC2C(N)CC(N)C(OC3OCC(C)(O)C(NC)C3O)C2O)O1` (stereo not shown) [Gentamicin, reference compound]: the MIC of antibiotic was <0.0625/<0.13 µg/mL in the assay with S. aureus (NCTC 10788); 0.125/0.26 µg/mL in the assay on MRSA (NCTC 12493); 4/8.38 µg/mL in the assay on E. faecalis (NCTC 12697); 1/2.09 µg/mL with E. coli (NCTC 10418); 1/2.09 µg/mL in assay [1]; 2/4.19 µg/mL in assay [2]. For the same compound, the MIC of antibiotic in assay [3] was 4/8.38 µg/mL; in assay [4], 0.25/0.52 µg/mL.
